From patent US11035850B2, “Quantitative determination of nucleoside analogue drugs in genomic DNA or RNA” (THE JOHNS HOPKINS UNIVERSITY, priority 2016, dated 2021)

How the values were obtained:
[1] = Stability of DAC, 2dC, and 5mC (LC-MS/MS); format: physicochemical; conditions: for Digest Buffers Stability (−70° C.) (35 Days) (%): digest buffer; for Stock Stability (27 Days) (%): Stock solution in water 1 mg/mL, −20° C. printed for DAC only
Protocol: (§1) Standards and quality control (QCs) samples were prepared by adding known concentrations of analytes into blank digest matrix (all solvents used during the DNA digest except for the enzymes). All digested DNA samples, standards and QCs were prepared for analysis by adding 20 μL internal standard (5AC-^15N4, 2dC-^13C^15N2 and 5mC-d3 in water) to 100 μL of sample and vortex-mix briefly. The internal standard in the range of 5 μL, 10 μL, or 15 μL to 20 μL, 25 μL, 30 μL, or 35 μL could be added to a sample. The sample could be in the range of 85 μL, 90 μL, or 95 μL to 100 μL, 105 μL, 110 μL, or 110 μL. The samples were injected onto a LC-MS system containing a Waters Acquity UPLC (Milford, Mass.) interfaced with an AB Sciex 5500 triple quadruple mass spectrometer (Foster City, Calif.). Chromatographic separation was achieved using Thermo Hypercarb porous graphite analytical column (100×2.1 mm, 5 μm, Waltham, Mass.) running isocratic with 10 mM ammonium acetate-acetonitrile-formic acid (70:30:0.1, v/v) with a flow rate of […]. The mass spectrometer was run in positive electrospray ionization mode with follow MRM transitions: DAC: 228.9→113.0, 2dC: 228.0→112.0, 5mC: 242.0→126.0, 5AC-^15N4 (internal standard): 249.0→117.0, 2dC-^13C^15N2 (internal standard) 230.8→115.0 and 5mC-d3 (internal standard) 245.8→129.0. The calibration range was 2-400 ng/mL for DAC, 5-1,000 ng/mL for 5mC, and 50-10,000 ng/mL for 2dC. All analytes were quantified using quadratic regression with 1/x^2 weighing.
A LC-MS/MS method was developed and validated to determine DAC, 2dC, and 5mC concentrations in DNA digest matrix (FIGS. 1-3). No major interferences were observed from blank matrix (FIGS. 1 and 2). Samples can be stored as the single dephosphorylated nucleotides for up to 35 days. The method has been applied in vitro to untreated (FIG. 4) and DAC treated cells (FIG. 5).

[2] = system: DU145 human prostate cancer cells; test: DAC incorporation into genomic DNA of DU145 cells (LC-MS/MS); format: cell-based
Protocol: (§2) Genomic DNA was suspended in 50 μL of HPLC grade water, and digested with 4 Units of Nuclease P1 (Sigma Aldrich) at 65° C. for 10 minutes in a digestion buffer containing 0.04 mM DFAM, 3.25 mM ammonium acetate pH 5.0, 0.5 mM zinc chloride in a final volume of 100 μL. 20 μL of 100 mM Trizma base, pH 8.5 was added and this reaction was treated with 4 Units of Alkaline Phosphatase at 37° C. for 1 hour. Following incubation, 20 μL of 300 mM ammonium acetate, pH 5.0 and 6 μL of 0.25 mM DFAM/50 mM ethylenediaminetetraacetic acid was added to stop digestion.
as §1
DU145 prostate cancer cells were cultured in RPMI-1640, supplemented with 5% fetal bovine serum (Invitrogen). DAC was dissolved in DMSO and added to the culture at varying concentrations. The same volume of DMSO was added as a control. Cells were allowed to grow for 48 hr. An independent experiment was performed in three replicates. Following cell harvest, genomic DNA isolation, digestion to single dephosphorylated nucleotides according to our described protocols, DAC and 2dC content were determined using our LC-MS/MS analytical approach.

colon tissue = test: DAC and 5mC content in genomic DNA of colon cells from mice treated with DAC; format: in vivo; conditions: DAC 1, 2 or 5 mg/kg intraperitoneal, 10 doses (FIG. 7)
Protocol: as §2
(§3) Standards and quality control (QCs) samples were prepared by adding known concentrations of analytes into blank digest matrix (all solvents used during the DNA digest except for the enzymes). All digested DNA samples, standards and QCs were prepared for analysis by adding 20 μL internal standard (5AC-^15N4, 2dC-^13C^15N2 and 5mC-d3 in water) to 100 μL of sample and vortex-mix briefly. The internal standard in the range of 5 μL, 10 μL, or 15 μL to 20 μL, 25 μL, 30 μL, or 35 μL could be added to a sample. […] All analytes were quantified using quadratic regression with 1/x^2 weighing. […]
(§4) DAC (1, 2 or 5 mg/kg) (Sigma-Aldrich) or vehicle was administered via daily intraperitoneal injection. […] DAC, 2dC, and 5mC were measured using our LC-MS/MS analytical approach.

whole bone marrow cells = test: DAC and 5mC content in genomic DNA of bone marrow cells from mice treated with DAC; format: in vivo; conditions: DAC 1, 2 or 5 mg/kg intraperitoneal, 10 doses (FIG. 7)
Protocol: as §2, §3, §4

[3] = due to deamination to 5-aza-2′-deoxyuridine; cited from earlier work
[4] = DU145 cells treated with 500 nM DAC (FIG. 5)

Row | Compound | Reinjection Stability (5 Days) (5° C.) (%) ([1]; High QC) | Digest Buffers Stability (−70° C.) (35 Days) (%) ([1]; High QC) | Reinjection Stability (5 Days) (5° C.) (%) ([1]; Low QC) | Digest Buffers Stability (−70° C.) (35 Days) (%) ([1]; Low QC) | Stock Stability (27 Days) (%) [1] [%] | concentration of 2dC in digested genomic DNA [2, 4] [ng/mL] | concentration of 5mC in digested genomic DNA [2, 4] [ng/mL] | concentration of DAC in digested genomic DNA [2, 4] [ng/mL] | amount of DAC per thousand 2dC versus initial treatment dose ([2]; increasing doses of DAC, 48 hours, three replicates (FIG. 6)) | 5mC content (per thousand 2dC) relative to DAC incorporation (colon tissue) | DAC incorporation into genomic DNA (DAC per thousand 2dC) (colon tissue) | DAC incorporation into genomic DNA (DAC per thousand 2dC) (whole bone marrow cells) | plasma half-life [3] [min]
1 | Nc1ncn([C@H]2C[C@H](O)[C@@H](CO)O2)c(=O)n1 [DAC, 5-aza-2′-deoxycytidine] | 92.5 | 103.2 | 88.6 | 101.8 | 94.8 | 1250 | 27.4 | 2.8 | strong linear correlation | inversely correlated with DAC incorporation | dose responsive increase in incorporation | dose responsive increase in incorporation | 15 to 25
2 | Nc1ccn([C@H]2C[C@H](O)[C@@H](CO)O2)c(=O)n1 [2dC, 2′-deoxycytidine] | 106.0 | 99 | 108.0 | 107.2 | 98.7 | – | – | – | – | – | – | – | –
